Data from US9890152B2 (Genentech, Inc., priority 2012, dated 2018).

Target: T1, EGFR del746-750 T790M (Homo sapiens, UniProt P00533, DEL746-750/T790M)
T1 construct: purchased Carna Biosciences 08-528
Experiment: EGFR del746-750 T790M biochemical assay (Caliper mobility shift)
Conditions: 5 μM ATP, 30 min, room temperature; apparent Ki (Morrison) converted by Cheng-Prusoff, Km of ATP 2.1 μM; read-out: EGFR(T790M/d746-750) Ki

T1 sequence (P00533 with tags, fused parts or gaps DEL746-750/T790M limits assumed): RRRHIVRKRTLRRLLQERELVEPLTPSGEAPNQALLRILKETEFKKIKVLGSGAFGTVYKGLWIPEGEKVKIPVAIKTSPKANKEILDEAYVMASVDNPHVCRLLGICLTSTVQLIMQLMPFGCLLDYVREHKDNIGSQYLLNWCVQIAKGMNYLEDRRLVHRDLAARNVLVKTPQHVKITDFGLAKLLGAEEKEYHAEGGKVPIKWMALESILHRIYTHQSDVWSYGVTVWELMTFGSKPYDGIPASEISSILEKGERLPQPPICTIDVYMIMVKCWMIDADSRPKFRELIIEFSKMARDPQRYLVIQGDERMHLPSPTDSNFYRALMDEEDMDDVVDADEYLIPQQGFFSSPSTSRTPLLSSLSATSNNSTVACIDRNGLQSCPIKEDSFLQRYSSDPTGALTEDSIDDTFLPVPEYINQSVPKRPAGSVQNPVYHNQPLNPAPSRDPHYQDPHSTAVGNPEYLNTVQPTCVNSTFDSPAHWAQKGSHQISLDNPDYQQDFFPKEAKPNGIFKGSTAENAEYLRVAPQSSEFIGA

| Ki [nM] | SMILES |
| --- | --- |
| 169 | CC(C)n1c(CO)nc2cnc(Nc3ccnc(N4CCC(C)(O)CC4)n3)cc21 [Example 418, 1-(4-((2-(hydroxymethyl)-1-isopropyl-1H-imidazo[4,5-c]pyridin-6-yl)amino)pyrimidin-2-yl)-4-methylpiperidin-4-ol] |
| 119 | Cc1nc2cnc(Nc3ccnc(N4CCC(O)C(C)(C)C4)n3)cc2n1C(C)C (centres unmarked) [Example 427, 1-(4-((1-isopropyl-2-methyl-1H-imidazo[4,5-c]pyridin-6-yl)amino)pyrimidin-2-yl)-3,3-dimethylpiperidin-4-ol] |
| 47.7 | Cc1nc2cnc(Nc3ccnc(-c4cnn(CCCN)c4)n3)cc2n1C(C)C [Example 430, N-(2-(1-(3-aminopropyl)-1H-pyrazol-4-yl)pyrimidin-4-yl)-1-isopropyl-2-methyl-1H-imidazo[4,5-c]pyridin-6-amine] |
| 2.36 | Cc1cc(-c2cn(C(C)C)c3cc(Nc4ccnc(-c5cnn(S(=O)(=O)C6CC6)c5)n4)ncc23)nn1CCO [Example 435, 2-(3-(6-(2-(1-(cyclopropylsulfonyl)-1H-pyrazol-4-yl)pyrimidin-4-ylamino)-1-isopropyl-1H-pyrrolo[3,2-c]pyridin-3-yl)-5-methyl-1H-pyrazol-1-yl)ethanol] |
| 1.21 | Cc1nn(CCO)cc1-c1cn(C(C)C)c2cc(Nc3ccnc(-c4cnn(S(=O)(=O)C5CC5)c4)n3)ncc12 [Example 437, 2-(4-(6-(2-(1-(cyclopropylsulfonyl)-1H-pyrazol-4-yl)pyrimidin-4-ylamino)-1-isopropyl-1H-pyrrolo[3,2-c]pyridin-3-yl)-3-methyl-1H-pyrazol-1-yl)ethanol] |
| 0.81 | CC(C)n1cc(-c2cn3c(n2)CNCC3)c2cnc(Nc3ccnc(-c4cnn(S(=O)(=O)C5CC5)c4)n3)cc21 [Example 442, N-(2-(1-(cyclopropylsulfonyl)-1H-pyrazol-4-yl)pyrimidin-4-yl)-1-isopropyl-3-(5,6,7,8-tetrahydroimidazo[1,2-a]pyrazin-2-yl)-1H-pyrrolo[3,2-c]pyridin-6-amine] |
| 32.4 | CC(C)CC(C)n1c(CO)nc2cnc(Nc3ccnc(-c4cnn(S(=O)(=O)C5CC5)c4)n3)cc21 (centres unmarked) [Example 478, (6-(2-(1-(cyclopropylsulfonyl)-1H-pyrazol-4-yl)pyrimidin-4-ylamino)-1-(4-methylpentan-2-yl)-1H-imidazo[4,5-c]pyridin-2-yl)methanol] |
| 746 | COC[C@H](C)n1c(C)nc2cnc(Nc3ccnc(N4CCC(OC)CC4)n3)cc21 [Example 490, [1-((S)-2-Methoxy-1-methylethyl)-2-methyl-1H-imidazo [4,5-c]pyridin-6-yl]-[2-(4-methoxypiperidin-1-yl)pyrimidin-4-yl]amine] |
| 30.4 | COC1CCN(c2nccc(Nc3cc4c(cn3)nc(C)n4-c3ccccc3)n2)CC1 [Example 494, N-(2-(4-Methoxypiperidin-yl)pyrimidin-4-yl)-2-methyl-1-phenyl-1H-imidazo[4,5-c]pyridin-6-amine] |
| 101 | C[C@@H](O)c1nc2cnc(Nc3ccnc(N4CCC(O)C(F)C4)n3)cc2n1[C@H](C)C(F)(F)F (stereo partly drawn) [Example 542, 3-Fluoro-1-{4-[2-((R)-1-hydroxyethyl)-1-((R)-2,2,2-trifluoro-1-methylethyl)-1H-imidazo[4,5-c]pyridin-6-ylamino]pyrimidin-2-yl}-piperidin-4-ol] |
| 143 | Cc1nc2cnc(Nc3ccnc(N4CCC(OC(F)F)CC4)n3)cc2n1C(C)C [Example 549, [2-(4-Difluoromethoxypiperidin-1-yl)pyrimidin-4-yl]-(1-isopropyl-2-methyl-1H-imidazo[4,5-c]pyridin-6-yl)amine] |
| 1.73 | CC(C)n1c([C@@H](C)O)nc2cnc(Nc3ccnc(-c4cnn(S(=O)(=O)C5CC5)c4)n3)cc21 [Example 561, (R)-1-{6-[2-(1-Cyclopropanesulfonyl-1H-pyrazol-4-yl)pyrimidin-4-ylamino]-1-isopropyl-1H-imidazo[4,5-c]pyridin-2-yl}ethanol] |
| 55 | Cc1nc2cnc(Nc3ccnc(N4CCC(F)CC4)n3)cc2n1C(C)C [Example 591, [2-(4-Fluoropiperidin-1-yl)pyrimidin-4-yl]-(1-isopropyl-2-methyl-1H-imidazo[4,5-c]pyridin-6-yl)amine] |

The remaining lines, values behind:

| SMILES | Ki [nM] |
| --- | --- |
| Cc1cc(-c2cn(C(C)C)c3cc(Nc4ccnc(-c5cnn(S(=O)(=O)C6CC6)c5)n4)ncc23)n(CCO)n1 [Example 436, 2-(5-(6-(2-(1-(cyclopropylsulfonyl)-1H-pyrazol-4-yl)pyrimidin-4-ylamino)-1-isopropyl-1H-pyrrolo[3,2-c]pyridin-3-yl)-3-methyl-1H-pyrazol-1-yl)ethanol] | 1.18 |
| Cc1c(-c2cn(C(C)C)c3cc(Nc4ccnc(-c5cnn(S(=O)(=O)C6CC6)c5)n4)ncc23)cnn1CCO [Example 438, 2-(4-(6-(2-(1-(cyclopropylsulfonyl)-1H-pyrazol-4-yl)pyrimidin-4-ylamino)-1-isopropyl-1H-pyrrolo[3,2-c]pyridin-3-yl)-5-methyl-1H-pyrazol-1-yl)ethanol] | 1.06 |
| CC(C)n1cc(-c2cnn(C3COC3)c2)c2cnc(Nc3ccnc(-c4cnn(S(=O)(=O)C5CC5)c4)n3)cc21 [Example 441, N-(2-(1-(cyclopropylsulfonyl)-1H-pyrazol-4-yl)pyrimidin-4-yl)-1-isopropyl-3-(1-(oxetan-3-yl)-1H-pyrazol-4-yl)-1H-pyrrolo[3,2-c]pyridin-6-amine] | 0.8 |
| CCS(=O)(=O)n1cc(-c2nccc(Nc3cc4c(cn3)c(C(=O)NC3COC3)cn4C(C)C)n2)cn1 [Example 448, 6-(2-(1-(ethylsulfonyl)-1H-pyrazol-4-yl)pyrimidin-4-ylamino)-1-isopropyl-N-(oxetan-3-yl)-1H-pyrrolo[3,2-c]pyridine-3-carboxamide] | 0.62 |
| CC(C)n1cc(C(=O)NC2CCSCC2)c2cnc(Nc3ccnc(-c4cnn(S(=O)(=O)C5CC5)c4)n3)cc21 [Example 458, 6-(2-(1-(cyclopropylsulfonyl)-1H-pyrazol-4-yl)pyrimidin-4-ylamino)-1-isopropyl-N-(tetrahydro-2H-thiopyran-4-yl)-1H-pyrrolo[3,2-c]pyridine-3-carboxamide] | 1.35 |
| Cc1nc2cnc(Nc3ccnc(-c4cnn(S(=O)(=O)C5CNC5)c4)n3)cc2n1C(C)C [Example 467, N-(2-(1-(azetidin-3-ylsulfonyl)-1H-pyrazol-4-yl)pyrimidin-4-yl)-1-isopropyl-2-methyl-1H-imidazo[4,5-c]pyridin-6-amine] | 5.77 |
| CC(CC1CC1)n1c(CO)nc2cnc(Nc3ccnc(-c4cnn(S(=O)(=O)C5CC5)c4)n3)cc21 (centres unmarked) [Example 488, (1-(1-cyclopropylpropan-2-yl)-6-(2-(1-(cyclopropylsulfonyl)-1H-pyrazol-4-yl)pyrimidin-4-ylamino)-1H-imidazo[4,5-c]pyridin-2-yl)methanol] | 2.17 |
| Cc1nc2cnc(Nc3ccnc(N4CCC5(CCO5)CC4)n3)cc2n1C(C)C [Example 495, N-(2-(1-Oxa-7-azaspiro[3.5]nonan-7-yl)pyrimidin-4-yl)-1-isopropyl-2-methyl-1H-imidazo[4,5-c]pyridin-6-amine] | 71.7 |
| Cc1nc2cnc(Nc3ccnc(NCC(C)(C)S(C)(=O)=O)n3)cc2n1C(C)C [Example 499, N^4-(1-Isopropyl-2-methyl-1H-imidazo[4,5-c]pyridin-6-yl)-N2-(2-methyl-2-(methylsulfonyl)propyl) pyrimidine-2,4-diamine] | 51.7 |
| Cc1nc2cnc(Nc3ccnc(N4CCC(O)CC4)n3)cc2n1C(C)C [Example 503, 1-(4-((1-Isopropyl-2-methyl-1H-imidazo[4,5-c]pyridin-6-yl)amino)pyrimidin-2-yl)piperidin-4-ol] | 128 |
| Cc1nc2cnc(Nc3ccnc(N4CCC5(CC4)OCCO5)n3)cc2n1C(C)C [Example 506, N-(2-(1,4-Dioxa-8-azaspiro[4.5]decan-8-yl)pyrimidin-4-yl)-1-isopropyl-2-methyl-1H-imidazo[4,5-c]pyridin-6-amine] | 117 |
| CC(C)n1c(CO)nc2cnc(Nc3ccnc(N4CCC(C(F)(F)F)CC4)n3)cc21 [Example 512, (1-Isopropyl-6-((2-(4-(trifluoromethyl)piperidin-1-yl)pyrimidin-4-yl)amino)-imidazo[4,5-c]pyridin-2-yl)methanol] | 133 |
| COC1CCN(c2nccc(Nc3cc4c(cn3)nc3n4C(C)(C)CO3)n2)CC1 [Example 532, N-(2-(4-methoxypiperidin-1-yl)pyrimidin-4-yl)-3,3-dimethyl-2,3-dihydrooxazolo[3′,2′:1,2]imidazo [4,5-c]pyridin-6-amine] | 519 |
| Cc1nc2cnc(Nc3ccnc(N4CCC(S(C)(=O)=O)CC4)n3)cc2n1C(C)C [Example 545, (1-Isopropyl-2-methyl-1H-imidazo[4,5-c]pyridin-6-yl)-[2-(4-methanesulfonylpiperidin-1-yl)pyrimidin-4-yl]amine] | 501 |
| CCNc1nc2cnc(Nc3ccnc(-c4cnn(S(=O)(=O)C5CC5)c4)n3)cc2n1C(C)C [Example 556] | 3.85 |
| CC(C)n1c([C@H](C)O)nc2cnc(Nc3ccnc(-c4cnn(S(=O)(=O)C5CC5)c4)n3)cc21 [Example 562, (S)-1-{6-[2-(1-Cyclopropanesulfonyl-1H-pyrazol-4-yl)pyrimidin-4-ylamino]-1-isopropyl-1H-imidazo[4,5-c]pyridin-2-yl}ethanol] | 14 |
| CC(C)n1c(C(C)(C)O)nc2cnc(Nc3ccnc(-c4cnn(S(=O)(=O)C5CC5)c4)n3)cc21 [Example 563, 2-{6-[2-(1-Cyclopropanesulfonyl-1H-pyrazol-4-yl)pyrimidin-4-ylamino]-1-isopropyl-1H-imidazo[4,5-c]pyridin-2-yl} propan-2-ol] | 11.1 |
| Cc1nc2cnc(Nc3ccnc(N4CCCC(F)C4)n3)cc2n1C(C)C (centres unmarked) [Example 590, [2-(3-Fluoropiperidin-1-yl)pyrimidin-4-yl]-(1-isopropyl-2-methyl-1H-imidazo[4,5-c]pyridin-6-yl)amine] | 93.5 |
| Cc1nc2cnc(Nc3ccnc(N4CC[C@H](F)C4)n3)cc2n1C(C)C [Example 592, [2-((S)-3-Fluoropyrrolidin-1-yl)pyrimidin-4-yl]-(1-isopropyl-2-methyl-1H-imidazo[4,5-c]pyridin-6-yl)amine] | 57.5 |
